# Legend:
# PBMC = experiment: CMV recall antigen-stimulated PBMC: IFNγ production and CFSE proliferation; assay type: cell-based; details: four days, vs vehicle control
# Protocol: Peripheral blood mononuclear cells (PBMC) from a cytomegalovirus (CMV)-positive donor were labeled with carboxyfluorescein succinimidyl ester (CFSE) and stimulated with CMV recall antigens at […]. The PBMC were then treated with one of three difference RARγ selective agonists or vehicle (DMSO) control and incubated at 37° C., 5% CO2 for four days. Culture supernatant was harvested and assayed for IFNγ production and the PBMC evaluated for proliferation by flow cytometry for CFSE dilution.
# CFSE is a fluorescent reactive cell membrane permeable dye. After it is taken up, CFSE covalently modifies proteins and is retained in cells for long periods of time. The CFSE-modified proteins are generally evenly divided between daughter cells at each division so that fluorescent intensity of the cells falls by have at each division. Thus diminution of the dye's fluorescent signal can be used as a measure of proliferation.
# TIL in LLC tumors = experiment: Flow cytometry of LLC tumors, Day 13; assay type: in vivo, mouse
# Excerpt: (§1) The mice were sacrificed on Day 13 of the study and the tumors collected and analyzed by flow cytometry. Statistical analysis was by ordinary one-way ANOVA with Tukey's test for significance comparison between groups. Gates were set to identify single cells by forward light scatter, live cells as single cells based on side scatter and staining with the vital stain Fixable Viability Dye eFluor™ 780, white blood cells from live cells based on side scatter and staining with anti-CD45, lymphocytes from white blood cells based on side and forward light scatter, and total T lymphocytes (tot T) from lymphocytes based on side scatter and staining with anti-CD3. Total T lymphocytes were divided into CD4^+ (TH) and CD8^+ (TC) lymphocytes based on staining with and anti-CD4 and CD8 antibodies and subsets assessed (FIG. 20). The following observations were made on a per-mg of tumor tissue basis.
# EMT6 cells [1] = experiment: EMT6 in vitro culture viability, Cell Titer Glo Assay; assay type: cell-based, mouse; details: 5 days
# Protocol: EMT6 cells were cultured in vitro for 5 days the presence of a multiple concentrations of the RARγ agonists GA1E, GA2E, and GA3Ep and viability assessed by the Cell Titer Glo Assay® (Promega).
# EMT6 cells [2] = experiment: EMT6 triple negative breast cancer model, various dosages (Example 5); assay type: in vivo, mouse
# Excerpt: The EMT6 triple negative breast cancer model, essentially as described above, was used to assess the effects of increased dosages of GA2E. The mice were orally administered 10 (n=10), 25 (n=10), or 50 (n=11) mg/kg of GA2E, or vehicle control (n=10) daily for 17 days. […] Two mice in the vehicle control group were terminated at Day 12 with tumors >1500 mm^3.
# [3] = test system: Lewis lung carcinoma (LLC) cells; experiment: Lewis lung carcinoma in vitro culture viability, Cell Titer Glo Assay; assay type: cell-based, mouse
# Protocol: Lewis lung carcinoma (LLC) cells were cultured in vitro the presence of a multiple concentrations of the RARγ agonists GA1E, GA2E, and GA3Ep and viability assessed by the Cell Titer Glo Assay®.
# TIL in JIMT-1 tumors = experiment: Flow cytometry of JIMT-1 tumors from NSG-B2M mice, Day 26; assay type: in vivo, human
# Excerpt: as §1, with “26” for “13”, “assessed.” for “assessed (FIG. 20).”
# TIL in EMT6 tumors = experiment: Flow cytometry of excised EMT6 tumors (Example 4); assay type: in vivo, mouse
# Excerpt: At the end of the study of Example 3, the tumors were excised, the cells disaggregated and dispersed without use of proteases, stained with various agents, and subjected to flow cytometry. FIG. 5A-B present the results of the flow cytometry both as a percentage of cells and as the number of cells per tumor. […] Of these live cells, a substantial proportion were leukocytes (FIG. 5A, “CD45” panels). […] The majority of the T cells were CD4+(FIG. 5A, “CD4” panels), expected to be predominantly helper cells. Of the CD4^+ cells, only small proportions were T memory cells (expected to be predominantly TH1 memory cells) based on intracellular staining for IFNγ (FIG. 5B, “TH IFGγ” panels), TH17 cells based in intracellular staining for IL-17 (FIG. 5B, “TH IL17” panels), or Treg cell based on staining for CD25 and FoxP3 (FIG. 5B, “Treg” panels). About 25-30% of the T cells were CD8^+ (FIG. 5B, “CD8 T” panels), expected to be predominantly cytotoxic cells.
# [4] = per mg tumor, vs controls, P<0.0001
# [5] = per mg tumor, vs controls, P<0.001
# [6] = per mg tumor, vs controls, P<0.05
# [7] = per mg tumor, vs controls, P<0.05, listed as GA2
# [8] = per mg tumor, vs controls, P>0.05
# [9] = 10 mg/kg oral daily, end of study
structure (smiles),measurement,setting,value
"CC1(C)CCC(C)(C)c2cc(C(/C=C/c3ccc(C(=O)O)cc3F)=N/O)ccc21 [GA2E, 3-fluoro-4-((1E,3E)-3-(hydroxyimino)-3-(5,5,8,8-tetramethyl-5,6,7,8-tetrahydronaphthalen-2-yl)prop-1-en-1-yl)benzoic acid]",IFNγ production,PBMC; 0.1 to 1000 nM,increased IFNγ production substantially
same,Proliferation of CD8+ cells (CFSE dilution),PBMC; increase small,increased
same,proportion of Treg cells as a percentage of total T cell,TIL in LLC tumors; P<0.001,significantly reduced
same,concentration of T helper cells,"TIL in LLC tumors; per mg tumor, 10 and 25 mg/kg",did not change significantly
same,concentration of T regulatory cells,"TIL in LLC tumors; per mg tumor, 10 and 25 mg/kg",did not change significantly
same,concentration of central memory CD8+ T cells,"TIL in LLC tumors; per mg tumor, 10 and 25 mg/kg",did not change significantly
same,concentration of naïve CD8+ T cells,"TIL in LLC tumors; per mg tumor, 10 and 25 mg/kg",did not change significantly
same,concentration of total CD4+ T cells,"TIL in LLC tumors; per mg tumor, 10 and 25 mg/kg",did not change significantly
same,concentration of effector memory CD8+ T cells,"TIL in LLC tumors; per mg tumor, P<0.01 for the 25 mg/kg dosage",increased
same,"concentration of cytotoxic cells (CD8, intracellular IFN-γ)","TIL in LLC tumors; per mg tumor, P<0.05 for the 25 mg/kg dosage",increased
same,concentration of total CD8+ lymphocytes in tumor,"TIL in LLC tumors; per mg tumor, vs controls, P<0.05 for the 25 mg/kg dosage",increased
same,effect on viability as concentrations exceeded 10 μM,EMT6 cells [1],rapidly became toxic
same,effect on viability at concentrations below 1 μM,EMT6 cells [1],no effect
same,IC50,"EMT6 cells [1]; Mus musculus, 120 h",19 µM
same,tolerability,EMT6 cells [2]; 10 mg/kg oral daily for 17 days,acceptably well-tolerated
same,mice terminated for excessive weight loss,"EMT6 cells [2]; 25 mg/kg group (n=10), oral daily",one mouse
same,"inhibiting tumor growth, 25 mg/kg dosage versus 10 mg/kg dosage",EMT6 cells [2]; 25 mg/kg oral daily,somewhat more effective
same,tolerability,EMT6 cells [2]; 25 mg/kg oral daily for 17 days,acceptably well-tolerated
same,weight loss,"EMT6 cells [2]; 25 mg/kg, only a short excursion",more than 10%
same,mice terminated for excessive weight loss,EMT6 cells [2]; 50 mg/kg oral daily (n=11),terminated for excessive weight loss not later than Day 12
same,tumor inhibition by the 50 mg/kg dosage versus the other dosages,"EMT6 cells [2]; 50 mg/kg, limited time in the study (to Day 12)",not clearly different
same,effect on viability as concentrations exceeded 10 μM,[3],rapidly became toxic
same,effect on viability at concentrations below 1 μM,[3],no effect
same,IC50,"[3]; Mus musculus, Lewis lung carcinoma",46 µM
same,"proportion of tumor cells expressing PD-L1, CD18β, CD58 (LFA-3), and Her2","TIL in JIMT-1 tumors; JIMT-1 tumor cells, flow cytometry",did not significantly alter
same,concentration of T central memory CD8+ cells (CCR7+ CD45AR−) in tumor,"TIL in JIMT-1 tumors; per mg tumor, vs controls",no significant change
same,concentration of T effector memory CD8+ cells (CCR7− CD45AR−) in tumor,"TIL in JIMT-1 tumors; per mg tumor, vs controls",no significant change
same,concentration of naïve CD8+ cells (CCR7+ CD45AR+) in tumor,"TIL in JIMT-1 tumors; per mg tumor, vs controls",no significant change
same,concentration of CD8+ TIL expressing PD-1,TIL in JIMT-1 tumors; [4],increased
same,concentration of terminally differentiated CD8+ T effector cells (CCR7− CD45AR+),TIL in JIMT-1 tumors; [4],substantial increase
same,concentration of CD8+ TIL expressing CD18β,TIL in JIMT-1 tumors; [5],increased
same,concentration of total CD8+ lymphocytes in tumor,TIL in JIMT-1 tumors; [5],increased
same,concentration of CD8+ TIL expressing CD54,"TIL in JIMT-1 tumors; per mg tumor, vs controls, P<0.01",increased
same,concentration of CD4+ TIL expressing CD18β,TIL in JIMT-1 tumors; [6],increased
same,concentration of CD4+ TIL expressing CD54,TIL in JIMT-1 tumors; [6],decreased
same,concentration of CD4+ TIL expressing PD-1,TIL in JIMT-1 tumors; [6],decreased
same,concentration of T central memory CD4+ cells (CCR7+ CD45AR−),TIL in JIMT-1 tumors; [6],decreased
same,concentration of T effector memory CD4+ cells (CCR7− CD45AR−),TIL in JIMT-1 tumors; [6],decreased
same,concentration of naïve CD4+ cells (CCR7+ CD45AR+),TIL in JIMT-1 tumors; [6],decreased
same,concentration of total CD4+ lymphocytes in tumor,TIL in JIMT-1 tumors; [6],decreased
same,concentration of CD4+ TIL expressing CD54,TIL in JIMT-1 tumors; [7],increased
same,concentration of CD4+ TIL expressing PD-1,TIL in JIMT-1 tumors; [7],increased
same,concentration of CD4+ TIL expressing FoxP3,TIL in JIMT-1 tumors; [8],increased
same,concentration of terminally differentiated CD4+ T effector cells (CCR7− CD45AR+),TIL in JIMT-1 tumors; [8],decreased
same,T cells (anti-CD3) as mean percentage of the leukocytes in the tumor,TIL in EMT6 tumors; [9],about 30%
same,number of TIL,TIL in EMT6 tumors; [9],increased
same,proportion of CD8+ T cells that were memory cells (intracellular IFNγ),"TIL in EMT6 tumors; vs vehicle control, did not achieve statistical significance",numerically increased
